What was measured:
Format in all cases: cell-based
SMARCA4 [1] = target: T1, SMARCA4 (Homo sapiens, UniProt P51532); assay: SMARCA4 degradation in SW1573 cells (Western blot); design: endogenous in cells; host or cells: SW1573; settings: 24 hours; for Dmax at 0.001 µM / Dmax at 0.08 µM: read-out: Degradation rate of SMARCA4 in SW1573 cells (%)
Description: SW1573 cells were seeded at 2x10^5Cells/well in a 6-well plate. 2 mL of EMEM medium supplemented with 10% FBS was added to each well and was incubated overnight to allow cell attachment. […] The cells were returned to the incubator and incubated for another 24 hours.
(§1) After 24 hours, cells were harvested, the medium was aspirated, and the cells were rinsed once with 1 mL/well PBS. The PBS was aspirated, and 40 µL/well of RIPA lysis buffer containing protease inhibitors was added. After lysis and centrifugation, total protein extracts were obtained, and protein concentration in the extracts was determined by BCA assay. Protein electrophoresis was performed by SDS-PAGE, followed by constant voltage electrophoresis at 100 V for 60 minutes and the protein was then transferred to a PVDF membrane. The PVDF membrane was blocked in 5% skim milk powder for 1 hour at room temperature. […] After washing the membrane, secondary antibodies were added and incubated at room temperature for 1 hour (protected from the light). After washing, the membrane was exposed using an Odyssey luminometer. Grayscale analysis of bands was performed using Image Studio software.
(§2) The degradation rate (%) of SMARCA2/4 by the PROTAC compounds of the present invention in HeLa cells and SW1573 cells is shown in Table 10. Table 10 Degradation rate of SMARCA2/4 by PROTAC compounds of the present invention in HeLa cells and SW1573 cells (%)

SMARCA4 [2] = target: T1, SMARCA4; assay: SMARCA4 degradation in HeLa cells (Western blot); design: endogenous in cells; settings: 4 hours; for Dmax at 0.001 µM / Dmax at 0.08 µM: read-out: Degradation rate of SMARCA4 in HeLa cells (%)
Description: HeLa cells were seeded at 1.2 x 10^5 cells/well in a 6-well plate. 2 mL of EMEM medium supplemented with 10% FBS was added to each well and the culture dish was incubated overnight to allow the cells to adhere. […] The cells were returned to the incubator and incubated for another 4 hours.
as §1, with “After 4 hours, cells” for “After 24 hours, cells”, “harvested, the culture medium was” for “harvested, the medium was”
as §2

SMARCA2 [3] = target: T2, SMARCA2 (Homo sapiens, UniProt P51531); assay: SMARCA2 degradation in HeLa cells (Western blot); design: endogenous in cells; settings: 4 hours
T2 sequence (P51531 whole entry): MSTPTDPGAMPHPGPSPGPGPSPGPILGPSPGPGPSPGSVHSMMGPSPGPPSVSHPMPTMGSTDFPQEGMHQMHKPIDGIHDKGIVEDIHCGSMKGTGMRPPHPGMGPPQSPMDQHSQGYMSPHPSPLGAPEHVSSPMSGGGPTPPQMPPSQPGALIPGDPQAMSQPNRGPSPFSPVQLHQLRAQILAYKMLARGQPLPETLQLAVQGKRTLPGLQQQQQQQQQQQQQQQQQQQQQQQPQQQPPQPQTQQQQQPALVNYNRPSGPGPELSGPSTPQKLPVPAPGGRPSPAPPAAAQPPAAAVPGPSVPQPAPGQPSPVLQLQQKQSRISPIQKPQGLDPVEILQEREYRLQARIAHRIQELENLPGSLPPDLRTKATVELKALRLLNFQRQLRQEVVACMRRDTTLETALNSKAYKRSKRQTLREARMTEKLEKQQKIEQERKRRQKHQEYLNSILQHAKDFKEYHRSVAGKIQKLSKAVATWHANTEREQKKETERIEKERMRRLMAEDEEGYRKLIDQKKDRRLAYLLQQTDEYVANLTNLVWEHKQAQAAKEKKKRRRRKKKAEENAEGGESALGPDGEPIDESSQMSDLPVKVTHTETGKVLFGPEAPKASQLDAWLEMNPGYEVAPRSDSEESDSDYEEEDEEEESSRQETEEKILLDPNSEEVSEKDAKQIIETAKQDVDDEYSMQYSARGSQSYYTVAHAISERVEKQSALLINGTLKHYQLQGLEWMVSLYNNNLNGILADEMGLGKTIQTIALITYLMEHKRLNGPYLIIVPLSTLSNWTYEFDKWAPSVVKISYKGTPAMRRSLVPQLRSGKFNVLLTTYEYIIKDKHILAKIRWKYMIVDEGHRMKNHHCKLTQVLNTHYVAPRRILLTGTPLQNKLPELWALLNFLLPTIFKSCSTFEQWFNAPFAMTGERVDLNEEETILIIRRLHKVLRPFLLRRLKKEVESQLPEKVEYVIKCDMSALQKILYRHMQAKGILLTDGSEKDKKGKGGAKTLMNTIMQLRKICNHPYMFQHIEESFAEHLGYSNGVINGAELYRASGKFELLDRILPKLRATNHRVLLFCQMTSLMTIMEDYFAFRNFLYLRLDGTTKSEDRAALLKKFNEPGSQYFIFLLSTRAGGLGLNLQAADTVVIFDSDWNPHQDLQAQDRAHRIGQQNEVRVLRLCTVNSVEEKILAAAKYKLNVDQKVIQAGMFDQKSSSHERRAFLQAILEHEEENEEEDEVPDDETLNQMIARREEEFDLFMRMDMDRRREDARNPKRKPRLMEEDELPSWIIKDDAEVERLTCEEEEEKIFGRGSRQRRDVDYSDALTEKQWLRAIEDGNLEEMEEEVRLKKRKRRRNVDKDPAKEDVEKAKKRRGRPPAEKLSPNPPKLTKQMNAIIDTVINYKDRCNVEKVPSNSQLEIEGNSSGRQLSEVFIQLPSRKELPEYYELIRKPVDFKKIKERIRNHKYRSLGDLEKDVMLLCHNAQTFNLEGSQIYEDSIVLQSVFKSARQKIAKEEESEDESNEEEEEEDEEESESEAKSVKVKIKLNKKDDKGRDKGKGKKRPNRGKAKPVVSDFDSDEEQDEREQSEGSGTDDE
Description: (§3) Test Example 10 Degradation rate (%) of SMARCA2/4 by the PROTAC compounds of the present invention in HeLa cells and SW1573 cells
(§4) HeLa cells were seeded at 1.2 x 10^5 cells/well in a 6-well plate. 2 mL of EMEM medium supplemented with 10% FBS was added to each well and the culture dish was incubated overnight to allow the cells to adhere. The next day, 1 µL of 160 µM and 1 µL of 2 µM compound were added to the corresponding wells, resulting in final compound concentrations of 80 nM and 1 nM, respectively, and a final DMSO concentration of 0.05%. The cells were returned to the incubator and incubated for another 4 hours.
(§5) After 4 hours, cells were harvested, the culture medium was aspirated, and the cells were rinsed once with 1 mL/well PBS. The PBS was aspirated, and 40 µL/well of RIPA lysis buffer containing protease inhibitors was added. After lysis and centrifugation, total protein extracts were obtained, and protein concentration in the extracts was determined by BCA assay. Protein electrophoresis was performed by SDS-PAGE, followed by constant voltage electrophoresis at 100 V for 60 minutes and the protein was then transferred to a PVDF membrane. The PVDF membrane was blocked in 5% skim milk powder for 1 hour at room temperature. Primary antibodies (SMARCA2: CST#11966S, SMARCA4: CST#49360S, GAPDH: CST#5174S) were added and incubated overnight at 4°C. After washing the membrane, secondary antibodies were added and incubated at room temperature for 1 hour (protected from the light). After washing, the membrane was exposed using an Odyssey luminometer. Grayscale analysis of bands was performed using Image Studio software.
as §2

SMARCA2 [4] = target: T2, SMARCA2; assay: SMARCA2 degradation in SW1573 cells (Western blot); design: endogenous in cells; host or cells: SW1573; settings: 24 hours
Description: as §3
as §4, with “SW1573” for “HeLa”, “2x10^5Cells/well” for “1.2 x 10^5 cells/well”, “and” for “and the culture dish”, “cell attachment.” for “the cells to adhere.”, “wells for treatment,” for “wells,”, “24” for “4”
as §5, with “After 24” for “After 4”, “the” for “the culture”
as §2

T1 sequence (P51532 whole entry): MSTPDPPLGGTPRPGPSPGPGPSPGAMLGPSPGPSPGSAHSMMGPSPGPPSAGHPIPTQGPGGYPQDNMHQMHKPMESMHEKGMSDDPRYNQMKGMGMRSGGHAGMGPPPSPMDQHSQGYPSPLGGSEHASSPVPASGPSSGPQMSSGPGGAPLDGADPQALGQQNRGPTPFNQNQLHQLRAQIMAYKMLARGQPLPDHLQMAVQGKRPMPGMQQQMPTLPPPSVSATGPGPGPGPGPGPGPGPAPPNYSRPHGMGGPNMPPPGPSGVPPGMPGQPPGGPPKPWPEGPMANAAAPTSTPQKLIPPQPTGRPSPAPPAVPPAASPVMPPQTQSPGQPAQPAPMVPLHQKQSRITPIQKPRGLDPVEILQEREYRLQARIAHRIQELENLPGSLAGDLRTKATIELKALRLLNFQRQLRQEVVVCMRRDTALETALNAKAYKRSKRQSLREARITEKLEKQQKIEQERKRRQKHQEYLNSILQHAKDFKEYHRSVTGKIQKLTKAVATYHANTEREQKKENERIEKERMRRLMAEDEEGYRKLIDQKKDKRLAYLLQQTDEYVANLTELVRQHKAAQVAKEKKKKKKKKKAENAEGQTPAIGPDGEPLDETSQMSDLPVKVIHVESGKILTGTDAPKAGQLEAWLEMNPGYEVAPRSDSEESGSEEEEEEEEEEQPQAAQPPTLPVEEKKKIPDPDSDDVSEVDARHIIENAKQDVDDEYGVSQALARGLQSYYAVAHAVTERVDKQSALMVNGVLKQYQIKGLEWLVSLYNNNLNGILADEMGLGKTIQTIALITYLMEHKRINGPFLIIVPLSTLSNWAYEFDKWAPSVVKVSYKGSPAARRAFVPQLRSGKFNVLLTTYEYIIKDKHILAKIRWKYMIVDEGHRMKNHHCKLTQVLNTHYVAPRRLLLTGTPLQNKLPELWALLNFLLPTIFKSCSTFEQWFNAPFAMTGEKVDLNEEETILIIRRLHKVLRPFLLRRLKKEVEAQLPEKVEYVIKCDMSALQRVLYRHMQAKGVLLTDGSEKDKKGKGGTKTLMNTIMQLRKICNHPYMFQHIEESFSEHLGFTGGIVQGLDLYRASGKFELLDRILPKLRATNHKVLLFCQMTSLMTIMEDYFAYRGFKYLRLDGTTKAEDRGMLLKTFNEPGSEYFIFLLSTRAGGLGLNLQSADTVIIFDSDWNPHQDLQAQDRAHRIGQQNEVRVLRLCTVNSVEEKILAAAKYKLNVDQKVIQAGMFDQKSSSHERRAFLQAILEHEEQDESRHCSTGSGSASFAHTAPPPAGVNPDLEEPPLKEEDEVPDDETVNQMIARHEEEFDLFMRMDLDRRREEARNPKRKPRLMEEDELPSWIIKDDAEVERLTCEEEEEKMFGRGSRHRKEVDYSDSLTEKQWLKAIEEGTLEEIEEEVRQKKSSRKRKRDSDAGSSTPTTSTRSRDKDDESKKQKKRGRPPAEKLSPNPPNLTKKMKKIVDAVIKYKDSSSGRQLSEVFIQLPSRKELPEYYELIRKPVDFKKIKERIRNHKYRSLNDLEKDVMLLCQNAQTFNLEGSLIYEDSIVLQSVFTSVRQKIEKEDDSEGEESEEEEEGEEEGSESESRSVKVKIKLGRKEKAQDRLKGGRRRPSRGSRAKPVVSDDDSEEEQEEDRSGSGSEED

SMILES	Degradation rate of SMARCA4 in SW1573 cells (%) (SMARCA4 [1]; 1 nM)	Degradation rate of SMARCA4 in SW1573 cells (%) (SMARCA4 [1]; 80 nM)	Degradation rate of SMARCA4 in HeLa cells (%) (SMARCA4 [2]; 1 nM)	Degradation rate of SMARCA4 in HeLa cells (%) (SMARCA4 [2]; 80 nM)	Degradation rate of SMARCA2 in HeLa cells (%) (SMARCA2 [3]; 1 nM)	Degradation rate of SMARCA2 in HeLa cells (%) (SMARCA2 [3]; 80 nM)	Degradation rate of SMARCA2 in SW1573 cells (%) (SMARCA2 [4]; 1 nM)	Degradation rate of SMARCA2 in SW1573 cells (%) (SMARCA2 [4]; 80 nM)	Dmax at 0.001 µM (SMARCA4 [1]; 1 nM) [%]	Dmax at 0.08 µM (SMARCA4 [1]; 80 nM) [%]	Dmax at 0.001 µM (SMARCA4 [2]; 1 nM) [%]	Dmax at 0.08 µM (SMARCA4 [2]; 80 nM) [%]
Nc1nnc(-c2ccccc2O)cc1C#CC1CCC2(CC1)CC(N1CCC3(CC1)COc1c3ccc(F)c1C(=O)N[C@H]1CCC(=O)NC1=O)C2 (some centres unmarked) [SM-P-19]	1	0	-11	24	14	59	11	31				
Nc1nnc(-c2ccccc2O)cc1C#CC1CCC2(CC1)CC(N1CCN3c4ccc(C(=O)N[C@H]5CCC(=O)NC5=O)cc4OC[C@@H]3C1)C2 (some centres unmarked) [SM-P-20]	-56	22	32	65	23	86	12	76				
Nc1nnc(-c2ccccc2O)cc1C#CC1CCC2(CC1)CC(N1CCC3(CCc4ccc(NC5CCC(=O)NC5=O)cc4O3)CC1)C2 (centres unmarked) [SM-P-24, 3-((1'-(7-((3-amino-6-(2-hydroxyphenyl)pyridazin-4-yl)ethynyl)spiro[3.5]nonan-2-yl)spiro[chromane-2,4'-piperidin]-7-yl)amino)piperidine-2,6-dione]					-10	29	-29	-75	12	11	-34	-1
Nc1nnc(-c2ccccc2O)cc1C#CC1CCC2(CC1)CC(N1CCC3(CC1)Cc1ccc(NC4CCC(=O)NC4=O)cc1O3)C2 (centres unmarked) [SM-P-25, 3-((1'-(7-((3-amino-6-(2-hydroxyphenyl)pyridazin-4-yl)ethynyl)spiro[3.5]nonan-2-yl)-3H-spiro[benzofuran-2,4'-piperidin]-6-yl)amino)piperidine-2,6-dione]					10	53	11	50	-21	-10	6	42

Next, values leading:

Degradation rate of SMARCA4 in SW1573 cells (%) (SMARCA4 [1]; 1 nM)	Degradation rate of SMARCA4 in SW1573 cells (%) (SMARCA4 [1]; 80 nM)	Degradation rate of SMARCA4 in HeLa cells (%) (SMARCA4 [2]; 1 nM)	Degradation rate of SMARCA4 in HeLa cells (%) (SMARCA4 [2]; 80 nM)	Degradation rate of SMARCA2 in HeLa cells (%) (SMARCA2 [3]; 1 nM)	Degradation rate of SMARCA2 in HeLa cells (%) (SMARCA2 [3]; 80 nM)	Degradation rate of SMARCA2 in SW1573 cells (%) (SMARCA2 [4]; 1 nM)	Degradation rate of SMARCA2 in SW1573 cells (%) (SMARCA2 [4]; 80 nM)	Dmax at 0.001 µM (SMARCA4 [1]; 1 nM) [%]	Dmax at 0.08 µM (SMARCA4 [1]; 80 nM) [%]	Dmax at 0.001 µM (SMARCA4 [2]; 1 nM) [%]	Dmax at 0.08 µM (SMARCA4 [2]; 80 nM) [%]	SMILES
-11	32	19	65	38	96	32	88					Nc1nnc(-c2ccccc2O)cc1C#CC1CCC2(CC1)CC(N1CCN3c4ccc(C(=O)N[C@H]5CCC(=O)NC5=O)cc4OCC[C@H]3C1)C2 (stereo partly drawn) [SM-P-13, (S)-3-(7-((3-amino-6-(2-hydroxyphenyl)pyridazin-4-yl)ethynyl)spiro[3.5]nonan-2-yl)-N-((S)-2,6-dioxopyrimidin-3-yl)-2,3,4,4a,5,6-hexahydro-1H-benzo[b]pyrazino[1,2-d] [1,4]oxythiophene-9-carboxamide]
				51	90	59	88	40	82	22	79	Cn1c(=O)n(C2CCC(=O)NC2=O)c2ccc3c(c21)OCC31CCN(C(=O)[C@H]2CC[C@H](Cn3cc(-c4cc(-c5ccccc5O)nnc4N)cn3)CC2)CC1 (some centres unmarked) [SM-P-27, 3-(1'-((1r,4r)-4-((4-(3-amino-6-(2-hydroxyphenyl)pyridazin-4-yl)-1H-pyrazol-1-yl)methyl)cyclohexane-1-carbonyl)-1-methyl-2-oxo-1,2-dihvdro-3H,7H-spiro[benzofuro[6,7-d]imidazole-6,4'-piperidin]-3-yl)piperidine-2,6-dione]
				17	98	14	77	11	95	38	99	Cn1c(=O)n(C2CCC(=O)NC2=O)c2cc3c(cc21)C1(CCN(C(=O)[C@H]2CC[C@H](Cn4cc(-c5cc(-c6ccccc6O)nnc5N)cn4)CC2)CC1)CO3 (some centres unmarked) [SM-P-28, 3-(1'-((1r,4r)-4-((4-(3-amino-6-(2-hydroxyphenyl)pyridazin-4-yl)-1H-pyrazol-1-yl)methyl)cyclohexane-1-carbonyl)-1-methyl-2-oxo-1,2-dihydro-3H,6H-spiro[benzofuro[5,6-d]imidazole-7,4'-piperidin]-3-yl)piperidine-2,6-dione]

Reference: patent publication EP4722219A1 (Gan & Lee Pharmaceuticals Co., Ltd., priority 2023, dated 2024)
